Legend:
Test in all cases: relative viability (nuclei count vs DMSO), 5 days (fraction); higher = more cells survive
[1] = system: A549
Procedure, shortened: (§1)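 Cells from lung cancer lines were seeded into 1536-well plates and, one day later, dosed by pin tool. Treatments were either a single drug or a fixed dose of an anchor drug with five library-drug doses (not always all listed) in √10 steps. After 5 days, nuclei were stained in a one-step fixation (final 0.05% Triton X-100, 1% formaldehyde, 1 ug/ml Hoechst) and counted on 4× images, and relative viability is the treated-to-vehicle nuclei ratio, as the median of duplicate plates.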

[2] = system: NCI-H1623
Procedure, shortened: as §1

[3] = system: ABC-1
Procedure, shortened: as §1

[4] = system: Calu-6
Procedure, shortened: as §1

[5] = system: IA-LM
Procedure, shortened: as §1

[6] = system: NCI-H1299
Procedure, shortened: as §1

[7] = system: NCI-H2009
Procedure, shortened: as §1

[8] = system: EBC-1
Procedure, shortened: as §1

[9] = system: NCI-H1703
Procedure, shortened: as §1

[10] = system: EMC-BAC-2
Procedure, shortened: as §1

[11] = system: NCI-H2228
Procedure, shortened: as §1

CCNC(=O)c1noc(-c2cc(C(C)C)c(O)cc2O)c1-c1ccc(CN2CCOCC2)cc1 [Luminespib] + COc1cc2c(Oc3ccc(NC(=O)C4(C(=O)Nc5ccc(F)cc5)CC4)cc3F)ccnc2cc1OCCCN1CCOCC1 [Foretinib] (partner 0.25 µM)
relative viability ([1]; first compound 0.002 µM): 1.04 | relative viability ([1]; first compound 0.006325 µM): 0.842 | relative viability ([1]; first compound 0.02 µM): 1.09 | relative viability ([1]; first compound 0.06325 µM): 0.138 | relative viability ([1]; first compound 0.2 µM): 0.0269 | relative viability ([2]; first compound 0.002 µM): 0.885 | relative viability ([2]; first compound 0.006325 µM): 0.783 | relative viability ([2]; first compound 0.02 µM): 0.67 | relative viability ([2]; first compound 0.06325 µM): 0.673 | relative viability ([2]; first compound 0.2 µM): 0.375 | relative viability ([3]; first compound 0.002 µM): 1.08 | relative viability ([3]; first compound 0.006325 µM): 0.881 | relative viability ([3]; first compound 0.02 µM): 0.859 | relative viability ([3]; first compound 0.06325 µM): 0.583 | relative viability ([3]; first compound 0.2 µM): 0.206 | relative viability ([4]; first compound 0.002 µM): 0.888 | relative viability ([4]; first compound 0.006325 µM): 0.889 | relative viability ([4]; first compound 0.02 µM): 1.03 | relative viability ([4]; first compound 0.06325 µM): 0.0858 | relative viability ([4]; first compound 0.2 µM): 0.086 | relative viability ([5]; first compound 0.002 µM): 1.07 | relative viability ([5]; first compound 0.006325 µM): 1.13 | relative viability ([5]; first compound 0.02 µM): 1.23 | relative viability ([5]; first compound 0.06325 µM): 0.0645 | relative viability ([5]; first compound 0.2 µM): 0.0409 | relative viability ([6]; first compound 0.002 µM): 1.08 | relative viability ([6]; first compound 0.006325 µM): 0.989 | relative viability ([6]; first compound 0.02 µM): 1.09 | relative viability ([6]; first compound 0.06325 µM): 1.07 | relative viability ([6]; first compound 0.2 µM): 0.191 | relative viability ([7]; first compound 0.002 µM): 1.22 | relative viability ([7]; first compound 0.006325 µM): 1.16 | relative viability ([7]; first compound 0.02 µM): 1.33 | relative viability ([7]; first compound 0.06325 µM): 0.298 | relative viability ([7]; first compound 0.2 µM): 0.0898 | relative viability ([8]; first compound 0.002 µM): 0.0894 | relative viability ([8]; first compound 0.006325 µM): 0.116 | relative viability ([8]; first compound 0.02 µM): 0.113 | relative viability ([8]; first compound 0.06325 µM): 0.0992 | relative viability ([8]; first compound 0.2 µM): 0.104 | relative viability ([9]; first compound 0.002 µM): 0.332 | relative viability ([9]; first compound 0.006325 µM): 0.348 | relative viability ([9]; first compound 0.02 µM): 0.396 | relative viability ([9]; first compound 0.06325 µM): 0.21 | relative viability ([9]; first compound 0.2 µM): 0.222 | relative viability ([10]; first compound 0.002 µM): 1.03 | relative viability ([10]; first compound 0.006325 µM): 0.936 | relative viability ([10]; first compound 0.02 µM): 0.942 | relative viability ([10]; first compound 0.06325 µM): 0.915 | relative viability ([10]; first compound 0.2 µM): 0.56 | relative viability ([11]; first compound 0.002 µM): 0.776 | relative viability ([11]; first compound 0.006325 µM): 0.844 | relative viability ([11]; first compound 0.02 µM): 0.692 | relative viability ([11]; first compound 0.06325 µM): 0.111 | relative viability ([11]; first compound 0.2 µM): 0.117

CCNC(=O)c1noc(-c2cc(C(C)C)c(O)cc2O)c1-c1ccc(CN2CCOCC2)cc1 [Luminespib] + Cc1nc(Nc2ncc(C(=O)Nc3c(C)cccc3Cl)s2)cc(N2CCN(CCO)CC2)n1 [Dasatinib] (partner 0.075 µM)
relative viability ([2]; first compound 0.002 µM): 0.525 | relative viability ([2]; first compound 0.006325 µM): 0.384 | relative viability ([2]; first compound 0.02 µM): 0.416 | relative viability ([2]; first compound 0.06325 µM): 0.506 | relative viability ([2]; first compound 0.2 µM): 0.406 | relative viability ([3]; first compound 0.002 µM): 0.691 | relative viability ([3]; first compound 0.006325 µM): 0.526 | relative viability ([3]; first compound 0.02 µM): 0.446 | relative viability ([3]; first compound 0.06325 µM): 0.197 | relative viability ([3]; first compound 0.2 µM): 0.193 | relative viability ([7]; first compound 0.002 µM): 0.342 | relative viability ([7]; first compound 0.006325 µM): 0.251 | relative viability ([7]; first compound 0.02 µM): 0.222 | relative viability ([7]; first compound 0.06325 µM): 0.0645 | relative viability ([7]; first compound 0.2 µM): 0.0808 | relative viability ([10]; first compound 0.002 µM): 0.355 | relative viability ([10]; first compound 0.006325 µM): 0.351 | relative viability ([10]; first compound 0.02 µM): 0.312 | relative viability ([10]; first compound 0.06325 µM): 0.395 | relative viability ([10]; first compound 0.2 µM): 0.172 | relative viability ([11]; first compound 0.002 µM): 0.423 | relative viability ([11]; first compound 0.006325 µM): 0.387 | relative viability ([11]; first compound 0.02 µM): 0.103 | relative viability ([11]; first compound 0.06325 µM): 0.096 | relative viability ([11]; first compound 0.2 µM): 0.101

CCNC(=O)c1noc(-c2cc(C(C)C)c(O)cc2O)c1-c1ccc(CN2CCOCC2)cc1 [Luminespib] + N=C(N)NC(=N)NCCc1ccccc1 [Phenformin] (partner 250 µM)
relative viability ([1]; first compound 0.002 µM): 0.166 | relative viability ([1]; first compound 0.006325 µM): 0.132 | relative viability ([1]; first compound 0.02 µM): 0.0856 | relative viability ([1]; first compound 0.06325 µM): 0.0194 | relative viability ([1]; first compound 0.2 µM): 0.0225 | relative viability ([2]; first compound 0.002 µM): 0.55 | relative viability ([2]; first compound 0.006325 µM): 0.536 | relative viability ([2]; first compound 0.02 µM): 0.493 | relative viability ([2]; first compound 0.06325 µM): 0.407 | relative viability ([2]; first compound 0.2 µM): 0.307 | relative viability ([3]; first compound 0.002 µM): 0.223 | relative viability ([3]; first compound 0.006325 µM): 0.272 | relative viability ([3]; first compound 0.02 µM): 0.241 | relative viability ([3]; first compound 0.06325 µM): 0.2 | relative viability ([3]; first compound 0.2 µM): 0.233 | relative viability ([7]; first compound 0.002 µM): 0.543 | relative viability ([7]; first compound 0.006325 µM): 0.44 | relative viability ([7]; first compound 0.02 µM): 0.487 | relative viability ([7]; first compound 0.06325 µM): 0.0851 | relative viability ([7]; first compound 0.2 µM): 0.103 | relative viability ([10]; first compound 0.002 µM): 0.529 | relative viability ([10]; first compound 0.006325 µM): 0.48 | relative viability ([10]; first compound 0.02 µM): 0.429 | relative viability ([10]; first compound 0.06325 µM): 0.254 | relative viability ([10]; first compound 0.2 µM): 0.175 | relative viability ([11]; first compound 0.002 µM): 0.314 | relative viability ([11]; first compound 0.006325 µM): 0.288 | relative viability ([11]; first compound 0.02 µM): 0.115 | relative viability ([11]; first compound 0.06325 µM): 0.102 | relative viability ([11]; first compound 0.2 µM): 0.0912

Source: the supplement of paper PMC10307832
